Results published in the NIST ThermoML archive (doi:10.1016/j.jct.2013.09.039).

Assay: xn = mol fraction of the nth substance listed
Details: Liquid, Vibrating tube method

Cc1ccc(C)cc1 [1,4-dimethylbenzene] + CCCCCCCC
mass density [kg/m3]
Details	100 kPa	5000 kPa	10000 kPa	20000 kPa	30000 kPa	40000 kPa
288.15 K, x2 = 0.0509	854.9	858.3	861.8	868.3	874.2	880
288.15 K, x2 = 0.0993	845.1	849	852.5	858.8	864.8	870.6
288.15 K, x2 = 0.1981	826.4	830.2	833.7	840.4	846.4	852.2
288.15 K, x2 = 0.2961	808.8	812.6	816.2	822.9	829	834.9
288.15 K, x2 = 0.3989	791.4	795.2	798.9	805.6	811.9	817.8
288.15 K, x2 = 0.4891	776.6	780.8	784.6	791.3	797.8	803.8
288.15 K, x2 = 0.5473	768.3	772	775.7	782.7	789.1	795.1
288.15 K, x2 = 0.6039	760.1	763.5	767.2	774.2	780.5	786.5
288.15 K, x2 = 0.8031	731.5	735.9	739.8	746.9	753.3	759.8
288.15 K, x2 = 0.8963	719.7	723.8	727.5	734.8	741.1	747.2
288.15 K, x2 = 0.946	712.7	716.7	720.8	727.6	734.2	740.3
298.15 K, x2 = 0.0509	846.1	850.4	853.4	860.3	866.3	872.5
298.15 K, x2 = 0.0993	836.5	840.8	844	850.7	857.1	863.1
298.15 K, x2 = 0.1981	817.9	822.3	825.5	832.4	838.9	844.9
298.15 K, x2 = 0.2961	800.2	804.6	808	815	821.5	827.5
298.15 K, x2 = 0.3989	782.9	787.4	790.9	798	804.5	810.7
298.15 K, x2 = 0.4891	768.7	773.3	776.6	784	790.7	796.8
298.15 K, x2 = 0.5473	760.7	764.4	768	775.2	781.9	787.9
298.15 K, x2 = 0.6039	752.1	755.9	759.5	766.8	773.3	779.4
298.15 K, x2 = 0.8031	723.7	728.5	732.1	739.3	746.2	752.5
298.15 K, x2 = 0.8963	712.2	716.5	720	727.3	734.1	740.5
298.15 K, x2 = 0.946	704.7	709.5	713.2	720.7	727.5	733.8
308.15 K, x2 = 0.0509	837.4	841.4	845.2	852.1	858.9	865
308.15 K, x2 = 0.0993	828	832	835.8	842.9	849.6	855.8
308.15 K, x2 = 0.1981	809.3	813.5	817.5	824.5	831.4	837.7
308.15 K, x2 = 0.2961	791.6	796	800	807.3	814.2	820.5
308.15 K, x2 = 0.3989	774.4	778.8	783	790.3	797.2	803.7
308.15 K, x2 = 0.4891	760.3	764.7	768.9	776.4	783.4	789.7
308.15 K, x2 = 0.5473	752.4	755.9	760.1	767.7	774.6	781.2
308.15 K, x2 = 0.6039	743.9	747.2	751.6	759.3	766.3	772.7
308.15 K, x2 = 0.8031	716.1	719.9	724.2	732.1	739.2	745.9
308.15 K, x2 = 0.8963	704.2	708.1	712.4	720.1	727.4	734
308.15 K, x2 = 0.946	697.5	701.3	705.5	713.4	720.7	727.3
